ChEMBL document CHEMBL5537154, “Smart glypican-3-targeting peptide-chlorin e6 conjugates for targeted photodynamic therapy of hepatocellular carcinoma” (Eur J Med Chem, 2024)
Peptide text beside a SMILES is read from it.

What was measured:
Glypican-3 = Glypican-3 (Homo sapiens, UniProt P51654); experiment: Binding affinity to GPC3 (unknown origin) assessed as dissociation constant by fluorescence polarization assay
[1] = Photostability of compound under 250 mW/cm2 light irradiation at 660 nm incubated for 10 mins by UV spectrophotometry; type: physicochemical; details: 0.66 µM
[2] = Aggregation property of compound in PBS; type: physicochemical; details: buffer
HepG2 = experiment: Induction of apoptosis in human HepG2 cells assessed as early apoptotic cells at 2.5 uM incubated for 24 hrs followed by 10 J/cm2 of light irradiation at 660 nm measured after 24 hrs by Annexin V-FITC/PI staining based flow cytometry relative to control; type: functional; details: time 48 hrs
[3] = Drug distribution in tumor of BALB/C nude mouse model xenografted with human HepG2 cells at 1 to 2 uM/kg, iv measured for 1 to 4 hrs by fluorescence imaging analysis; type: ADME, organism-based, Neoplasm; details: in vivo, dose lower 1 µM/Kg, time lower 1 hrs, dose upper 2 µM/Kg, time upper 4 hrs
[4] = Drug distribution in kidney of BALB/C nude mouse model xenografted with human HepG2 cells at 1 to 2 uM/kg, iv measured for 1 to 4 hrs by fluorescence imaging analysis; type: ADME, organism-based; details: in vivo, dose lower 1 µM/Kg, time lower 1 hrs, dose upper 2 µM/Kg, time upper 4 hrs

Glypican-3, sequence (P51654 25-358 limits assumed): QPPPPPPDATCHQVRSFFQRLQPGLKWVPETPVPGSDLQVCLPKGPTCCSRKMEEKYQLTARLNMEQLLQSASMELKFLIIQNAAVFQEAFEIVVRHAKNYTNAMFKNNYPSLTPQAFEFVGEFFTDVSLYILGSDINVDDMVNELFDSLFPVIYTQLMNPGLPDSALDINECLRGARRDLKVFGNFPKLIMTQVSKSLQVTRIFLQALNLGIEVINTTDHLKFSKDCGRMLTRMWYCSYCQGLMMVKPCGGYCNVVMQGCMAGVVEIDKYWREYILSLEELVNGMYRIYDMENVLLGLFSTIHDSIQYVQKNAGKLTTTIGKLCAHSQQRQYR
Glypican-3, sequence (P51654 359-554 limits assumed): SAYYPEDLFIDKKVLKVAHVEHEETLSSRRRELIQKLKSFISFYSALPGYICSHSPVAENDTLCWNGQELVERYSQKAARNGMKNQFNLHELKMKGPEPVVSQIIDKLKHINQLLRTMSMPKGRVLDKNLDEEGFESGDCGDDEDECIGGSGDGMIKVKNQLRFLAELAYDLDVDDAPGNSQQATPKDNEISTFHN

For `C=Cc1c(C)c2cc3nc(c(CC(=O)O)c4[nH]c(cc5nc(cc1[nH]2)C(C)=C5CC)c(C)c4C(=O)NCCCC(=O)N[C@@H](CC(=O)O)C(=O)N[C@@H](Cc1cnc[nH]1)C(=O)N[C@@H](CC(C)C)C(=O)N[C@@H](C)C(=O)N[C@@H](CO)C(=O)N[C@@H](CC(C)C)C(=O)N[C@@H](Cc1c[nH]c2ccccc12)C(=O)N[C@@H](Cc1c[nH]c2ccccc12)C(=O)NCC(=O)N[C@H](C(=O)N[C@@H](CCC(=O)O)C(=O)N[C@@H](CC(C)C)C(=O)O)[C@@H](C)O)[C@@H](CCC(=O)O)[C@@H]3C` (HELM PEPTIDE1{[C=Cc1c(C)c2cc3nc(c(CC(=O)O)c4[nH]c(cc5nc(cc1[nH]2)C(C)=C5CC)c(C)c4C(=O)[*:2])[C@@H](CCC(=O)O)[C@@H]3C].[O=C(CCCN[*:1])[*:2]].D.H.L.A.S.L.W.W.G.T.E.L}$$$$V2.0), the Kd (Glypican-3) was 380 nM, the Stability [1] was “Stable” and the Activity [2] was “Active”. The Activity (HepG2) was 0.1%, the Drug uptake [3] was “Active” and the Drug uptake [4] was “Not Active”.
